The source of these data is PMC6154466, “Design, Synthesis, Molecular Docking Analysis, and Carbonic Anhydrase IX Inhibitory Evaluations of Novel N-Substituted-β-D-Glucosamine Derivatives that Incorporate Benzenesulfonamides” (Molecules : A Journal of Synthetic Chemistry and Natural …, 2017).

Data set [1] deals with T1, Recombinant human carbonic anhydrase IX (Homo sapiens, UniProt Q16790).
T1 construct: purchased Sino Biological Inc, Beijing, China
Description: hCA IX inhibition, 4-nitrophenyl acetate (4-NPA) esterase assay. It is filed as biochemical. The following applies: mean ± standard error. How it is done:
Carbonic anhydrases are able to catalyze the conversion 4-nitrophenyl acetate (4-NPA) to 4-nitrophenol. […] One × Assay buffer is composed of 15 mmol/L 4-(2-hydroxyethyl)-1-piperazineethanesulfonic acid (HEPES) (pH = 7.4), 0.01% tetraethylene glycol monododecyl ether (BRIJ) and 100 mmol/L NaCl. […] Then, 18 μL of enzyme solution was transferred into 384-well assay plates in triplicate. Stock solutions of the inhibitor (10 mmol/L) were prepared using DMSO as solvent, and then diluted 1:3 with DMSO. […] The normalized data were then fit to a sigmoidal dose-response curve using GraphPad Prism 5.0 software, La Jolla, CA, USA to obtain the IC50. Final enzyme concentration was 5 ng/μL.

Data set [2] deals with CA IX over intracellular CA II. More on the design: method as in PMID 25254302. To be noted: cited from earlier work.
Data set [3] relates to CA IX over intracellular CA I. Set-up: method as in PMID 25254302. To be noted: cited from earlier work.

By IC50 is commonly meant the concentration that inhibits the measured activity by half. The melting point is the temperature, or range, at which the solid turns liquid. With `Cc1ccc(S(=O)(=O)NC2C(NC(=S)Nc3ccc(S(N)(=O)=O)cc3)OC(CO)C(O)C2O)cc1` [Compound 7a, N-[4-(Aminosulfonyl)phenyl]-N′-[2′-(4′-methylbenzenesulfonylamino)-2′-deoxy-β-D-glucopyranosyl]thiourea], the melting point lay in the range of 159.5 to 161.2 °C. Also, the IC50 in data set [1] came to 21.8 ± 3.18 nM.

On to `Cc1ccccc1S(=O)(=O)N[C@@H]1[C@@H](O)[C@H](O)[C@@H](CO)O[C@H]1NC(=S)Nc1ccc(S(N)(=O)=O)cc1` [Compound 7b, N-[4-(Aminosulfonyl)phenyl]-N′-[2′-(2′-methylbenzenesulfonylamino)-2′-deoxy-β-D-glucopyranosyl]thiourea], for which the melting point lay within 175.2 to 177.1 °C. Moreover, the IC50 in data set [1] was determined as 21.9 ± 0.37 nM.

`COc1ccc(S(=O)(=O)N[C@@H]2[C@@H](O)[C@H](O)[C@@H](CO)O[C@H]2NC(=S)Nc2ccc(S(N)(=O)=O)cc2)cc1` [Compound 7c, N-[4-(Aminosulfonyl)phenyl]-N′-[2′-(4′-methoxybenzenesulfonylamino)-2′-deoxy-β-D-glucopyranosyl]thiourea] returned a melting point of 165 to 166.3 °C. Also, in data set [1], the IC50 turned out to be 23.8 ± 0.51 nM.

Turning to `NS(=O)(=O)c1ccc(NC(=S)N[C@@H]2O[C@H](CO)[C@@H](O)[C@H](O)[C@H]2NS(=O)(=O)c2ccc(F)cc2)cc1` [Compound 7d, N-[4-(Aminosulfonyl)phenyl]-N′-[2′-(4′-fluorobenzenesulfonylamino)-2′-deoxy-β-D-glucopyranosyl]thiourea], the melting point was 178 to 179.6 °C. Moreover, the IC50 in data set [1] stood at 25.6 ± 2.15 nM.

Turning to `NS(=O)(=O)c1ccc(NC(=S)N[C@@H]2O[C@H](CO)[C@@H](O)[C@H](O)[C@H]2NS(=O)(=O)c2cc(F)cc(F)c2)cc1` [Compound 7e, N-[4-(Aminosulfonyl)phenyl]-N′-[2′-(3′,5′-difluorobenzenesulfonylamino)-2′-deoxy-β-D-glucopyranosyl]thiourea], the melting point is 164.4 to 165.2 °C. Besides, the half-maximal inhibitory concentration (IC50) in data set [1] turned out to be 11.5 ± 0.93 nM.

The compound `NS(=O)(=O)c1ccc(NC(=S)NC2OC(CO)C(O)C(O)C2NS(=O)(=O)c2ccc(C(F)(F)F)cc2)cc1` [Compound 7f, N-[4-(Aminosulfonyl)phenyl]-N′-[2′-(4′-trifluoromethylbenzenesulfonylamino)-2′-deoxy-β-D-glucopyranosyl]thiourea] returned a melting point of 164 to 165.4 °C. The IC50 in data set [1] was found to be 10 ± 0.23 nM.

Consider `NS(=O)(=O)c1ccc(NC(=S)N[C@@H]2O[C@H](CO)[C@@H](O)[C@H](O)[C@H]2NS(=O)(=O)c2ccc(Cl)cc2)cc1` [Compound 7g, N-[4-(Aminosulfonyl)phenyl]-N′-[2′-(4′-chlorobenzenesulfonylamino)-2′-deoxy-β-D-glucopyranosyl]thiourea], for which the melting point was in the range of 167.2 to 168.8 °C. The concentration for half-maximal inhibition (IC50) in data set [1] was determined as 26.9 ± 0.28 nM.

As for `NS(=O)(=O)c1ccc(NC(=S)N[C@@H]2O[C@H](CO)[C@@H](O)[C@H](O)[C@H]2NS(=O)(=O)c2ccc(Br)cc2)cc1` [Compound 7h, N-[4-(Aminosulfonyl)phenyl]-N′-[2′-(4′-bromobenzenesulfonylamino)-2′-deoxy-β-D-glucopyranosyl]thiourea], the melting point was 174.1 to 176 °C. In data set [1], the IC50 turned out to be 21.3 ± 1.29 nM.

Regarding `NS(=O)(=O)c1ccc(NC(=S)N[C@@H]2O[C@H](CO)[C@@H](O)[C@H](O)[C@H]2NS(=O)(=O)c2cccc(Br)c2)cc1` [Compound 7i, N-[4-(Aminosulfonyl)phenyl]-N′-[2′-(3′-bromobenzenesulfonylamino)-2′-deoxy-β-D-glucopyranosyl]thiourea], the melting point lay in the range of 172.9 to 174.7 °C. Also, the IC50 in data set [1] was found to be 12.6 ± 0.96 nM.

Regarding `NS(=O)(=O)c1ccc(NC(=S)N[C@@H]2O[C@H](CO)[C@@H](O)[C@H](O)[C@H]2NS(=O)(=O)c2ccc([N+](=O)[O-])cc2)cc1` [Compound 7j, N-[4-(Aminosulfonyl)phenyl]-N′-[2′-(4′-nitrobenzenesulfonylamino)-2′-deoxy-β-D-glucopyranosyl]thiourea], the melting point lay within 174.7 to 176 °C. The half-maximal inhibitory concentration (IC50) in data set [1] turned out to be 25.4 ± 3.8 nM.

In turn, `NS(=O)(=O)c1ccc(NC(=S)N[C@@H]2O[C@H](CO)[C@@H](O)[C@H](O)[C@H]2NS(=O)(=O)c2ccccc2[N+](=O)[O-])cc1` [Compound 7k, N-[4-(Aminosulfonyl)phenyl]-N′-[2′-(2′-nitrobenzenesulfonylamino)-2′-deoxy-β-D-glucopyranosyl]thiourea] registered a melting point of 169.7 to 171.7 °C. Moreover, the 50% inhibitory concentration (IC50) in data set [1] is 15.6 ± 0.44 nM.

For `NS(=O)(=O)c1ccc(NC(=S)N[C@@H]2O[C@H](CO)[C@@H](O)[C@H](O)[C@H]2NS(=O)(=O)c2cccc([N+](=O)[O-])c2)cc1` [Compound 7l, N-[4-(Aminosulfonyl)phenyl]-N′-[2′-(3′-nitrobenzenesulfonylamino)-2′-deoxy-β-D-glucopyranosyl]thiourea], the melting point fell in the range of 177.3 to 179.2 °C. Also, the IC50 in data set [1] turned out to be 18.9 ± 0.33 nM.

`N#Cc1ccc(S(=O)(=O)N[C@@H]2[C@@H](O)[C@H](O)[C@@H](CO)O[C@H]2NC(=S)Nc2ccc(S(N)(=O)=O)cc2)cc1` [Compound 7m, N-[4-(Aminosulfonyl)phenyl]-N′-[2′-(4′-cyanobenzenesulfonylamino)-2′-deoxy-β-D-glucopyranosyl]thiourea]: the melting point lay in the range of 169 to 170.6 °C. Moreover, the IC50 in data set [1] was 21.9 ± 0.49 nM.

Compound `NS(=O)(=O)c1ccc(NC(=S)N[C@@H]2O[C@H](CO)[C@@H](O)[C@H](O)[C@H]2NS(=O)(=O)c2ccc3ccccc3c2)cc1` [Compound 7n, N-[4-(Aminosulfonyl)phenyl]-N′-[2′-(naphthalene-2′-sulfonylamino)-2′-deoxy-β-D-glucopyranosyl]thiourea] yielded a melting point of 182.7 to 184.6 °C. Also, the IC50 in data set [1] was 24.78 ± 0.05 nM.

`CCS(=O)(=O)N[C@@H]1[C@@H](O)[C@H](O)[C@@H](CO)O[C@H]1NC(=S)Nc1ccc(S(N)(=O)=O)cc1` [Compound 7o, N-[4-(Aminosulfonyl)phenyl]-N′-(2′-ethylsulfonylamino-2′-deoxy-β-D-glucopyranosyl)thiourea]: the melting point was 164.8 to 166.2 °C. Moreover, the IC50 in data set [1] was 66.9 ± 3.26 nM.

In turn, `CCCS(=O)(=O)NC1C(NC(=S)Nc2ccc(S(N)(=O)=O)cc2)OC(CO)C(O)C1O` [Compound 7p, N-[4-(Aminosulfonyl)phenyl]-N′-(2′-n-propylsulfonylamino-2′-deoxy-β-D-glucopyranosyl)thiourea] returned a melting point of 159.1 to 160.6 °C. Moreover, the IC50 in data set [1] stood at 389 ± 27.7 nM.

Regarding `CN(C)S(=O)(=O)N[C@@H]1[C@@H](O)[C@H](O)[C@@H](CO)O[C@H]1NC(=S)Nc1ccc(S(N)(=O)=O)cc1` [Compound 7q, N-[4-(Aminosulfonyl)phenyl]-N′-[2′-(N′,N′-dimethylsulfonylamino)-2′-deoxy-β-D-glucopyranosyl]thiourea], the melting point was in the range of 157.4 to 159.4 °C. Moreover, the IC50 in data set [1] worked out at 72.1 ± 6.15 nM.

Turning to `NS(=O)(=O)c1ccc(NC(=S)N[C@@H]2O[C@H](CO)[C@@H](O)[C@H](O)[C@H]2NS(=O)(=O)c2cccs2)cc1` [Compound 7r, N-[4-(Aminosulfonyl)phenyl]-N′-[2′-(thiophene-2′-sulfonylamino)-2′-deoxy-β-D-glucopyranosyl]thiourea], the melting point lay within 172.8 to 174 °C. In addition, the IC50 in data set [1] is 65.8 ± 0.08 nM.

Turning to `CC(=O)NC1C(NC(=S)Nc2ccc(S(N)(=O)=O)cc2)OC(COC(C)=O)C(OC(C)=O)C1OC(C)=O` [Compound 9a, N-[4-(Aminosulfonyl)phenyl]-N′-(2′-acetylamino-3′,4′,6′-tri-O-acetyl-2′-deoxy-β-D-glucopyranosyl)thiourea], the melting point fell in the range of 141.8 to 142.9 °C. The half-maximal inhibitory concentration (IC50) in data set [1] was 1290 ± 141 nM.

For the compound `CC(=O)NC1C(NC(=S)Nc2ccc(S(N)(=O)=O)cc2)OC(CO)C(O)C1O` [Compound 9b, N-[4-(Aminosulfonyl)phenyl]-N′-(2′-acetylamino-2′-deoxy-β-D-glucopyranosyl)thiourea], the melting point lay within 151.1 to 152.9 °C. Besides, the IC50 in data set [1] turned out to be 176 ± 9.45 nM.

For `NS(=O)(=O)OCCCCCNS(=O)(=O)[C@@H]1O[C@H](CO)[C@@H](O)[C@H](O)[C@H]1O` [Compound A], the “selectivity for CA IX over CA II” value in data set [2] is 3200 fold. Besides, the “selectivity for CA IX over CA I” value in data set [3] is given as 1200 fold.
